Laboratory results reported in US6458834B2, “Pentacyclic triterpenes” (Micro Flo Company, priority 1998, dated 2002).
Read-outs that look alike come from different tables or passages of the source.

How the values were obtained:
[1] = biological target: T1, human leucocyte elastase (Homo sapiens, UniProt P08246); experiment: Human leucocyte elastase (HLE) inhibition, MeO-Suc-Ala-Ala-Pro-Val-pNA substrate; type: biochemical
T1 construct: purchased Elastin Products
T1 sequence (P08246 30-267): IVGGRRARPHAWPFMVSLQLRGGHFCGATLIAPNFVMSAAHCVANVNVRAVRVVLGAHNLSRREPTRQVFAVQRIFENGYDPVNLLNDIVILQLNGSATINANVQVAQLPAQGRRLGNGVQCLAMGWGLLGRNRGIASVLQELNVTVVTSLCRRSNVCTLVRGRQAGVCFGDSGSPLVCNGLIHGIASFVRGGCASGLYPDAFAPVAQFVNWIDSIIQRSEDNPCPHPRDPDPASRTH
Protocol: Stock solutions were mixed to yield a reaction mixture consisting of 0.5 mM MeO-Suc-Ala-Ala-Pro-Val-pNA (Sigma) and […] human leucocyte elastase (Elastin Products) in 0.1 M Tris, 0.5 M NaCl and 3% DMSO (v/v) at a pH of 7.5. Test compounds were solubilized in DMSO. Equal volumes of enzyme and inhibitor were mixed and allowed to incubate for 15 minutes at room temperature. The reaction was started by the addition of a third equal volume containing substrate. Reactions were carried out in microliter plates.

[2] = biological target: plasmin (Homo sapiens, UniProt P00747); experiment: plasmin assay; type: biochemical; settings: for inhibition at 22 µM: measured at 22 μM
Sequence of plasmin (P00747 581-810 limits assumed, species assumed): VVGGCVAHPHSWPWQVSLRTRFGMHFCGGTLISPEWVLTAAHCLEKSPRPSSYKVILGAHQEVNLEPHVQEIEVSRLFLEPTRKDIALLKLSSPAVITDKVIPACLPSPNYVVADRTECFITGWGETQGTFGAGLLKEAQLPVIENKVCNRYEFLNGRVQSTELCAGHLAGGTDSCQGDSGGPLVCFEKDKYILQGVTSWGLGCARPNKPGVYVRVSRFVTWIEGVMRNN
Sequence of plasmin (P00747 97-580 partner limits assumed, species assumed): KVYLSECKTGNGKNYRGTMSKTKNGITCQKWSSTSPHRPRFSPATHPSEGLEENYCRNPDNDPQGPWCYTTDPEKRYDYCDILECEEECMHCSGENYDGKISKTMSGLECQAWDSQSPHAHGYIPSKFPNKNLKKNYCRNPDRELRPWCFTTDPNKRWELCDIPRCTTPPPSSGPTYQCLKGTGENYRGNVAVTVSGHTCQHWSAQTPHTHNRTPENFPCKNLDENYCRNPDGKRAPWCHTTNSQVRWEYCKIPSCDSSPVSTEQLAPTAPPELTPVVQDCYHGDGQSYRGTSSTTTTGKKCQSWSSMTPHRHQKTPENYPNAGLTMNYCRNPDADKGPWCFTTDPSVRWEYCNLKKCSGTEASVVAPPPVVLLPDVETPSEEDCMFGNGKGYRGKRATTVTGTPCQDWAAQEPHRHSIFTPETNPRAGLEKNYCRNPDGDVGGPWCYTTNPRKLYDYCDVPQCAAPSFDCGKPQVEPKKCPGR
Source text: (§1) Thus, PTs appear to bind non-covalently to hydrophobic domains of enzymes and either block an access to the enzyme active site or cause conformational change, both resulting in the enzyme's inability to perform its function.

[3] = biological target: urokinase (Homo sapiens, UniProt P00749); experiment: urokinase assay; type: biochemical; settings: for inhibition at 22 µM: measured at 22 μM
Source text: as §1

[4] = test system: mites; settings: cited from earlier work
[5] = biological target: thrombin (Homo sapiens, UniProt P00734); experiment: thrombin assay; type: biochemical
Source text: as §1

[6] = biological target: T2, trypsin (Bos taurus, UniProt P00760); experiment: trypsin assay; type: biochemical
T2 construct: gene PRSS1
T2 sequence (P00760 24-246): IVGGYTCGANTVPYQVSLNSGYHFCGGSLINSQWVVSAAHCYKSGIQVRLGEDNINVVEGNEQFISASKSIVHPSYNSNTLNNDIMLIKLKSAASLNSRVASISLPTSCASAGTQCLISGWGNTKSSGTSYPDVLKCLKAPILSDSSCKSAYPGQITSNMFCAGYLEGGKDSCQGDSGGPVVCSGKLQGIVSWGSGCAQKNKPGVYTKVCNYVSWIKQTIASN
Source text: as §1

[7] = 0.1 M Tris, 0.5 M NaCl, 3% DMSO, pH 7.5, 15 min preincubation at room temperature, read-out: IC50

Row | IC50 [1, 7] [µM] | Compound | IC50 [1] [µM] | further results
1 |  | C=C(C)C1CCC2(C(=O)O)CCC3(C)C(CCC4C5(C)CCC(OC(C)=O)C(C)(C)C5CCC43C)C12 (stereo not shown) [Example 11, Acetylbetulinic acid] | 7 | 
2 | 11 | C=C(C)[C@@H]1CC[C@]2(C(=O)O)CC[C@]3(C)[C@H](CC[C@@H]4[C@@]5(C)CCC(=O)C(C)(C)[C@@H]5CC[C@]43C)[C@@H]12 [Example 12, 3-Ketobetulinic acid] |  | 
3 | 6.3 | C=C(C)[C@@H]1CC[C@]2(COC(=O)CCC(=O)O)CC[C@]3(C)[C@H](CC[C@@H]4[C@@]5(C)CC[C@H](O)C(C)(C)[C@@H]5CC[C@]43C)[C@@H]12 [Example 8, 28-Succinylbetulin] |  | 
4 |  | C[C@H]1[C@H](C)CC[C@]2(C(=O)O)CC[C@]3(C)C(=CC[C@@H]4[C@@]5(C)CC[C@H](O)C(C)(C)[C@@H]5CC[C@]43C)[C@H]12 [Example 17, Ursolic acid] | 7.7 | inhibition at 22 µM [2]: 43%; inhibition at 22 µM [3]: 83%; effects towards the mites and their survival [4]: toxicity and feeding deterrent effects; reduction of ingestion time on diet containing ursolic acid ([4]; diet containing ursolic acid): about 30%
5 |  | CC1(C)CC[C@]2(C(=O)O)CC[C@]3(C)C(=CC[C@@H]4[C@@]5(C)CC[C@H](O)C(C)(C)[C@@H]5CC[C@]43C)[C@@H]2C1 [Example 20, Oleanolic acid] |  | inhibition at 22 µM [2]: 25%; inhibition at 22 µM [3]: 40%
6 |  | C=C(C)C1CCC2(C(=O)O)CCC3(C)C(CCC4C5(C)CCC(OS(C)(=O)=O)C(C)(C)C5CCC43C)C12 (stereo not shown) [Example 13, Methanesulfonylbetulinic acid] | 11.2 | melting point: 210 to 212 °C
7 |  | CC1(C)CC[C@]2(C(=O)O)CC[C@]3(C)C(=CC[C@@H]4[C@@]5(C)CC[C@H](O)[C@@](C)(CO)[C@@H]5CC[C@]43C)[C@@H]2C1 [Example 23, Hederagenin] | 16.8 | 
8 |  | C=C(C)[C@@H]1CC[C@]2(CO)CC[C@]3(C)[C@H](CC[C@@H]4[C@@]5(C)CC[C@H](O)C(C)(C)[C@@H]5CC[C@]43C)[C@@H]12 [Example 7, Betulin] | 5 | 
9 |  | C[C@H]1[C@H](C)CC[C@]2(CO)CC[C@]3(C)C(=CC[C@@H]4[C@@]5(C)CC[C@H](O)C(C)(C)[C@@H]5CC[C@]43C)[C@H]12 [Example 16, Uvaol] | 4.5 | 
10 |  | C=C(C)[C@@H]1CC[C@]2(C)CC[C@]3(C)[C@H](CC[C@@H]4[C@@]5(C)CC[C@H](O)C(C)(C)[C@@H]5CC[C@]43C)[C@@H]12 [Example 5, Lupeol] | 8.4 | 
11 | 7.3 | C=C(C)C1CCC2(C(=O)OC)CCC3(C)C(CCC4C5(C)CCC(OS(C)(=O)=O)C(C)(C)C5CCC43C)C12 (stereo not shown) [Example 14, Methyl ester of 3-methanesulfonylbetulinic acid] |  | 
12 | 5.4 | CC1(C)CC[C@]2(C)CC[C@]3(C)C(=CC[C@@H]4[C@@]5(C)CC[C@H](O)C(C)(C)[C@@H]5CC[C@]43C)[C@@H]2C1 [Example 15, β-Amyrin] |  | 
13 | 5.7 | C=C(C)[C@@H]1CC[C@]2(C(=O)OC)CC[C@]3(C)[C@H](CC[C@@H]4[C@@]5(C)CC[C@H](O)C(C)(C)[C@@H]5CC[C@]43C)[C@@H]12 [Example 10, Methyl ester of betulinic acid] |  | 
14 | 4.9 | COC(=O)[C@]12CC[C@@H](C)[C@H](C)[C@H]1C1=CC[C@@H]3[C@@]4(C)CC[C@H](O)C(C)(C)[C@@H]4CC[C@@]3(C)[C@]1(C)CC2 [Example 18, Ursolic acid, Me ester] |  | 
15 |  | CC1(C)CC[C@]2(C(=O)O)[C@H](O)C[C@]3(C)C(=CC[C@@H]4[C@@]5(C)CC[C@H](O)[C@@](C)(CO)[C@@H]5CC[C@]43C)[C@@H]2C1 [Example 24, Caulophyllogenin] |  | inhibition of HLE at a single concentration ([1]; @ 21°): 0% @ 21°

Row | Compound | IC50 [1, 7] [µM] | IC50 [1] [µM] | further results
16 | C=C(C)[C@@H]1CC[C@]2(C(=O)O)CC[C@]3(C)[C@H](CC[C@@H]4[C@@]5(C)CC[C@H](O)C(C)(C)[C@@H]5CC[C@]43C)[C@@H]12 [Example 9, Betulinic acid] | 3.3 |  | IC50 [2]: 6.2 µM; IC50 [3]: 5 µM; IC50 [5]: 2.3 µM; IC50 [6]: 8.5 µM
17 | Lupeol acetate [Example 6] | 14.9 |  | 
18 | COC(=O)[C@]12CCC(C)(C)C[C@H]1C1=CC[C@@H]3[C@@]4(C)CC[C@H](O)C(C)(C)[C@@H]4CC[C@@]3(C)[C@]1(C)CC2 [Example 21, Oleanolic acid, Me ester] | 8.5 |  | 
